We go through 20 molecules from patent US7879852B2, “Melanocortin receptor agonists” (LG Life Sciences Ltd., priority 2006, dated 2011).

In this test the target is T1, human melanocortin receptor 4 (MC4R) (Homo sapiens, UniProt P32245).
T1 construct: expressed in transfected cells; grown with 200 ug/ml Geneticin
T1 sequence (P32245 whole entry): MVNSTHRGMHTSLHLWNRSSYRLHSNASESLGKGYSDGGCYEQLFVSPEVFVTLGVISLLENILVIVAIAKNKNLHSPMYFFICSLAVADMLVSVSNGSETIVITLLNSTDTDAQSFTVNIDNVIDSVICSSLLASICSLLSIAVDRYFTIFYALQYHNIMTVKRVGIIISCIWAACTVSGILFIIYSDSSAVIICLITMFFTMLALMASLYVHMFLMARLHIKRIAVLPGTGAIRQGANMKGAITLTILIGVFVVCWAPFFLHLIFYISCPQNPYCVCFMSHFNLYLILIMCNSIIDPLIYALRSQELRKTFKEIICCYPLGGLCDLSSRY
Kind of test: Luciferase assay. The test is classed as cell-based. The conditions noted are these: agonistic activity at MC4R (Table 18); patent does not state whether luciferase or cAMP assay. How it is done:
Cell lines expressing human melanocortin receptor 4 (MC4R) were dissociated from tissue culture dishes by rinsing with Ca^++, Mg^++ free DPBS, treated with 1× Trypsin/EDTA solution for 1 min at 37° C., and resuspended with DMRM (GIBCO-BRL) supplemented with 10% FBS. The cells were counted and diluted with DMEM supplemented with 10% FBS and 200 ug/ml of Geneticin to […]. 90 ul of cell suspension was plated onto each well of 96-well black and clear bottom culture plates (Costar). After the incubation for 24 h in the atmosphere of 6% CO2 at 37° C., 10 ul of NDP-MSH and test compounds diluted in DMSO were added to each well. The final DMSO concentration was 1%. After 4 h of incubation in the atmosphere of 6% CO2 at 37° C., 50 ul of Bright-Glo (Promega) was added to each well. Luciferase activity was measured by using L-Max luminometer (Molecular Device). The amount of luciferase activity induced by treatment with NDP-MSH was defined as 100% to obtain the relative efficacy of test compounds. The EC0.5 MSH was defined as the concentration of test compounds that results in half maximal activity of NDP-MSH. The EC50 was defined as the concentration of test compound that results in half maximal activity of its own.
Molecule `CC1(C)CCC(N(C(=O)C(C)(C)C)[C@H]2C[C@@H](CO)N(C(=O)[C@@H]3CN(C(C)(C)C)C[C@H]3c3ccc(Cl)cc3)C2)CC1` [Example B4, N-[(3S,5S)-1-{[(3S,4R)-1-tert-butyl-4-(4-chlorophenyl)pyrrolidine-3-yl]carbonyl}-5-(hydroxymethyl)pyrrolidine-3-yl]-N-(4,4-dimethylcyclohexyl)-2,2-dimethylpropaneamide] gave a concentration giving a half-maximal response (EC50) of 16 nM.

As for `CC1CCC(N(C(=O)C(C)(C)C)C2CC(C(N)=S)N(C(=O)C3CN(C(C)(C)C)CC3c3ccc(F)cc3F)C2)CC1` (centres unmarked) [Example B28], the 50% effective concentration (EC50) was 14 nM.

`CC(C)C(=O)N(C1CCC(C)(C)CC1)C1CC(C=NO)N(C(=O)C2CN(C(C)(C)C)CC2c2ccc(F)cc2F)C1` (centres unmarked) [Example B33] gave a concentration for a half-maximal effect (EC50) of 65 nM.

Consider `CC1(C)CCC(N(C(=O)C(C)(C)C(N)=O)[C@H]2CCN(C(=O)C3CN(C(C)(C)C)C[C@H]3c3ccc(Cl)cc3)C2)CC1` (stereo partly drawn) [Example C1, N-[(3S)-1-{[(3S,4R)-1-tert-butyl-4-(4-chlorophenyl)pyrrolidine-3-yl]carbonyl}pyrrolidine-3-yl]-N-(4,4-dimethylcyclohexyl)-2,2-dimethylmaloneamide], for which a half-maximal response (EC50) required 38 nM.

With `COCC(C)(C)C(=O)N(C1CCC(C)(C)CC1)[C@H]1CCN(C(=O)[C@@H]2CN(C(C)(C)C)C[C@H]2c2ccc(Cl)cc2)C1` [Example C2, N-[(3S)-1-{[(3S,4R)-1-tert-butyl-4-(4-chlorophenyl)pyrrolidine-3-yl]carbonyl}pyrrolidine-3-yl]-N-(4,4-dimethylcyclohexyl)-3-methoxy-2,2-dimethylpropaneamide], the midpoint of the response, the EC50, lay at 11 nM.

Take `CC1(C)CCC(N(C(=O)C(C)(C)/C=N/O)[C@H]2CCN(C(=O)[C@@H]3CN(C(C)(C)C)C[C@H]3c3ccc(Cl)cc3)C2)CC1` [Example C3, (3E)-N-[(3S)-1-{[(3S,4R)-1-tert-butyl-4-(4-chlorophenyl)pyrrolidine-3-yl]carbonyl}pyrrolidine-3-yl]-N-(4,4-dimethylcyclohexyl)-3-(hydroxyimino)-2,2-dimethylpropaneamide]: the response was half-maximal at 15 nM (EC50).

`CC(=O)C(C)(C)C(=O)N(C1CCC(C)(C)CC1)[C@H]1CCN(C(=O)[C@@H]2CN(C(C)(C)C)C[C@H]2c2ccc(Cl)cc2)C1` [Example C5, N-[(3S)-1-{[(3S,4R)-1-tertbutyl-4-(4-chlorophenyl)pyrrolidine-3-yl]carbonyl}pyrrolidine-3-yl]-N-(4,4-dimethylcyclohexyl)-2,2-dimethyl-3-oxobutaneamide] had a 50% effective concentration (EC50) of 6 nM.

In turn, `CCN(C)C(=O)[C@@H]1C[C@H](N(C(=O)C(C)(C)COC)C2CCC(F)(F)CC2)CN1C(=O)C1CN(C(C)(C)C)C[C@H]1c1ccc(Cl)cc1` (stereo partly drawn) [Example C9, N-[(3S)-1-{[(3S,4R)-1-tert-butyl-4-(4-chlorophenyl)pyrrolidine-3-yl]carbonyl}pyrrolidine-3-yl]-N-[(4,4-difluorocyclohexyl)(3-methoxy-2,2-dimethylpropanoyl)amino]-N-ethyl-N-methyl-L-prolineamide] yielded a 50% effective concentration (EC50) of 41 nM.

On to `CN(C)C(=O)[C@@H]1C[C@H](N(C(=O)C(C)(C)C(N)=O)C2CCC(C)(C)CC2)CN1C(=O)C1CN(C(C)(C)C)C[C@H]1c1ccc(Cl)cc1` (stereo partly drawn) [Example C12, N-{(3S,5S)-1-{[(3S,4R)-1-tert-butyl-4-(4-chlorophenyl)pyrrolidine-3-yl]carbonyl}-5-[(dimethylamino)carbonyl]pyrrolidine-3-yl}-N-(4,4-dimethylcyclohexyl)-2,2-dimethylmaloneamide], for which a half-maximal response (EC50) required 95 nM.

Regarding `CCN(C)C(=O)[C@@H]1C[C@H](N(C(=O)C(C)(C)CS)C2CCC(C)(C)CC2)CN1C(=O)[C@@H]1CN(C(C)(C)C)C[C@H]1c1ccc(F)cc1F` [Example C14, (4S)-1-{[(3S,4R)-1-tert-butyl-4-(2,4-difluorophenyl)pyrrolidine-3-yl]carbonyl}-4-[(4,4-dimethylcyclohexyl)(3-mercapto-2,2-dimethylpropanoyl)amino]-N-ethyl-N-methyl-L-prolineamide], the response was half-maximal at 66 nM (EC50).

On to `COCC(C)(C)C(=O)N(C1CCC(F)(F)CC1)[C@H]1C[C@@H](C(=O)N(C)C)N(C(=O)[C@@H]2CN(C(C)(C)C)C[C@H]2c2ccc(Cl)cc2)C1` [Example C24], for which it took 22 nM to reach a half-maximal effect (EC50).

The molecule `CN(C)C(=O)[C@@H]1C[C@H](N(C(=O)C(C)(C)C)c2ccc(F)cc2F)CN1C(=O)[C@@H]1CN(C(C)(C)C)C[C@H]1c1ccc(Cl)cc1` [Example D1, (4S)-1-{[(3S,4R)-1-tert-butyl-4-(4-chlorophenyl)pyrrolidine-3-yl]carbonyl}-4-[(2,4-difluorophenyl)(2,2-dimethylpropanoyl)amino]-N,N-dimethyl-L-prolineamide] came in with an EC50 of 47 nM.

In turn, `CC1CCC(N(C(=O)c2ccoc2)C2CCN(C(=O)C3CNCC3c3ccc(Cl)cc3)C2)CC1` (centres unmarked) [Example E1-14] had an EC50 of 23 nM.

As for `CC1CCC(N(C(=O)C2=CCOC2)C2CCN(C(=O)C3CNCC3c3ccc(Cl)cc3)C2)CC1` (centres unmarked) [Example E1-23], it took 21 nM to reach a half-maximal effect (EC50).

In the case of `CC1(C)CCC(N(C(=O)C(C)(C)CO)[C@H]2CCN(C(=O)[C@@H]3CN(C(N)=O)C[C@H]3c3ccc(Cl)cc3)C2)CC1` [Example E2-2], the EC50 was determined as 7 nM.

`CC1(C)CCC(N(C(=O)C(C)(C)C)[C@H]2CCN(C(=O)[C@@H]3CN(C(N)=O)C[C@H]3c3ccc(Cl)cc3)C2)CC1` [Example E2-3] gave an EC50 of 45 nM.

In the case of `CCN(C)C(=O)[C@@H]1C[C@H](N(C(=O)[C@@H]2CCCO2)C2CCC(C)(C)CC2)CN1C(=O)[C@@H]1CN(C2CCOCC2)C[C@H]1c1ccc(Cl)cc1` [Example E5-2, (4S)-1-{[(3S,4R)-4-(4-chlorophenyl)-1-(tetrahydro-2H-pyran-4-yl)pyrrolidine-3-yl]carbonyl}-4-{(4,4-dimethylcyclohexyl)[(2S)-tetrahydrofuran-2-ylcarbonyl]amino}-N-ethyl-N-methyl-L-prolineamide], the EC50 amounted to 5 nM.

As to `CCNC(=N)N1C[C@@H](C(=O)N2CC[C@H](N(C(=O)C(C)C)[C@H]3CC[C@@H](C)CC3)C2)[C@H](c2ccc(Cl)cc2)C1` [Example E10, N-[(3S)-1-({(3S,4R)-4-(4-chlorophenyl)-1-[(ethylamino)(imino)methyl]pyrrolidine-3-yl}carbonyl)pyrrolidine-3-yl]2-methyl-N-(cis-4-methylcyclohexyl)propaneamide], the EC50 stood at 4 nM.

Take “(4S)-1-[(3S,4R)-1-tert-butyl-4-(4-chlorophenyl)pyrrolidine-3-yl]carbonyl)-4-{(4,4-dimethylcyclohexyl)[(2S)-tetrahydrofuran-2-ylcarbonyl]amino}-N,N-ethylmethyl-L-prolineamide [Example A2]”: the EC50 came out at 16 nM.

“S-(3-{[(3S,5S)-1-{[(3S,4R)-1-tert-butyl-4-(2,4-difluorophenyl)pyrrolidine-3-yl]carbonyl}-5-{[ethyl(methyl)amino]carbonyl}pyrrolidine-3-yl](4,4-dimethylcyclohexyl)amino}-2,2-dimethyl-3-oxopropyl)ethanethioate [Example C13]” returned an EC50 of 40 nM.

What is called EC50 is the concentration at which the effect is half-maximal. Low readings indicate higher potency in that assay, high ones lower potency in that assay.
